Active and inactive are the calls of the source.
Columns and labels:
[1] = biological target: T1, Endoribonuclease toxin MazF (Escherichia coli K-12, UniProt P0AE70); experiment: activation of MazEF endoribonuclease cleavage – biochemical, fluorescence, single-stranded RNA substrate, uHTS hits, dose response (AID 588481); assay type: functional
T1 sequence (P0AE70 whole entry): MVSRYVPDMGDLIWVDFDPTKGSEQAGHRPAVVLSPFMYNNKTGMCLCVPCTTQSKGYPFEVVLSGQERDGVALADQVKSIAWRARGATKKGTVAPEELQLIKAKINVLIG

[2] = biological target: T1, Endoribonuclease toxin MazF; experiment: substrate-only fluorescence increase artefacts – biochemical, single-stranded RNase substrate, counter-screen for MazEF activator project, dose response (AID 588502); assay type: functional
[3] = Luminescence-based cell-based high throughput dose response assay to identify activators of the DAF-12 from the parasite S. stercoralis (ssDAF-12).; assay type: functional
[4] = biological target: T2, Oxysterols receptor LXR-beta (Homo sapiens, UniProt P55055); experiment: LXR agonists, Gal4 luciferase reporter, dose response, counter-screen for ssDAF-12 agonist project, cell-based, luminescence, HEK293, S. stercoralis campaign (AID 720737); assay type: functional; settings: read-out: IC50 (the source's name)
T2 sequence (P55055 whole entry): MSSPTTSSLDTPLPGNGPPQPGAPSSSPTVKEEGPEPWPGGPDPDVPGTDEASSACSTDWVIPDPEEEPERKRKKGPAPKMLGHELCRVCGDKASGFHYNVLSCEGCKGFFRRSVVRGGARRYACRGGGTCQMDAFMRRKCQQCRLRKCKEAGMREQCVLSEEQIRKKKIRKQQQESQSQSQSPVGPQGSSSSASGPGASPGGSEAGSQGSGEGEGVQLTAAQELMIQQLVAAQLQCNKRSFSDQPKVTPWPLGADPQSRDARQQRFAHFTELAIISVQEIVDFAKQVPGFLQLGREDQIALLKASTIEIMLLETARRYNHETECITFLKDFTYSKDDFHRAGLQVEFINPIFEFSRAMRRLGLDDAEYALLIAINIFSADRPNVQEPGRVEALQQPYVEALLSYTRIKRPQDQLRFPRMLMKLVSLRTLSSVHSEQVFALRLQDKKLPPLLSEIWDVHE

[5] = viability of uninfected HEp-2 cells – cell-based, HTS, cytotoxicity control for RSV inhibitor project, dose response (AID 2410); assay type: functional; settings: human respiratory syncytial virus
[6] = biological target: Voltage-dependent T-type calcium channel subunit alpha-1H (Homo sapiens, UniProt O95180); assay type: functional;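 also: channel activity triggered by adding a high calcium stimulation buffer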
[7] = biological target: T3, Probable nicotinate-nucleotide adenylyltransferase (Staphylococcus aureus (strain N315), UniProt P65502); assay type: functional, Staphylococcus aureus subsp. aureus N315;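 as to IC50 Mean: confirmatory dose-response retesting of NadD inhibitor hits first found in an ultra-high-throughput screen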
[8] = biological target: T3, Probable nicotinate-nucleotide adenylyltransferase; assay type: functional, Staphylococcus aureus subsp. aureus N315; settings: read-out: IC50_Mean
[9] = decrease of insulin promoter-GFP reporter – imaging, high-content screening, mouse beta cells (AID 1628); assay type: functional; settings: MIN6
[10] = MIN6 cell viability loss – mouse insulinoma, cytotoxicity control, dose response (AID 2122); assay type: functional;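 also: confirmatory high-throughput counterscreen run to flag cytotoxic compounds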
[11] = viability loss in THP-1 monocytes – THP-1 cells, cytotoxicity control for Vif-APOBEC3G degradation inhibitor project, dose response (AID 1117359); assay type: functional; settings: THP-1
[12] = HEK-293T viability loss after treatment – luminescence, T-cell screen hits, cytotoxicity control for TCR NF-kB inhibitor project, dose response (AID 489026); assay type: functional, cell-based;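 also: cells exposed to compound about 14 hours before the viability readout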
Estrogen receptor = biological target: T4, Estrogen receptor (Homo sapiens, UniProt P03372);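 also: potency for inhibiting coactivator peptide recruitment to the receptor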
T4 sequence (P03372 whole entry): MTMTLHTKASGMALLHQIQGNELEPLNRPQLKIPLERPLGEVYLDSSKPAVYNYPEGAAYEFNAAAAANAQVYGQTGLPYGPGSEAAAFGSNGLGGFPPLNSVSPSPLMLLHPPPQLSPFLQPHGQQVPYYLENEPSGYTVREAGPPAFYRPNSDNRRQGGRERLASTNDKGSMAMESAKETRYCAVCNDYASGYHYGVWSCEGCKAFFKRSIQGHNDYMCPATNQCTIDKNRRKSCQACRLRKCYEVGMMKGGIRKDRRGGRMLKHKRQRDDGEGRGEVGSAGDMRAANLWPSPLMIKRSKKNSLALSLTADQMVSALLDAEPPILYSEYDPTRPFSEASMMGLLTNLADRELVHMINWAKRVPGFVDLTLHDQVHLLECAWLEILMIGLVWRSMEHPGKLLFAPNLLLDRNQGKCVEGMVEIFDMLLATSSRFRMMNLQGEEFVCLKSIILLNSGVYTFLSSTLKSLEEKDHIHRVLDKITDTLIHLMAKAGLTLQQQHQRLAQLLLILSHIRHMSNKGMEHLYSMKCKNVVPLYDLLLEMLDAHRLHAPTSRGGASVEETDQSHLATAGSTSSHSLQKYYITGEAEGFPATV

Estrogen receptor beta [13] = biological target: T5, Estrogen receptor beta (Homo sapiens, UniProt Q92731);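 also: recombinant ER-beta bound to coactivator SRC1 peptide in presence of estradiol agonist; inhibitors block coactivator peptide binding and lower the FRET signal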
Estrogen receptor beta [14] = biological target: T5, Estrogen receptor beta; experiment: blockers of SRC-3 recruitment to ERβ – biochemical, ELISA, streptavidin-HRP readout, orthogonal assay, confirmation (AID 1060)
Vero [15] = experiment: cells; assay type: functional, cell-based; settings: Chlorocebus sabaeus
Vero [16] = experiment: cells; assay type: functional; settings: Chlorocebus sabaeus
[17] = biological target: T6, RNA-binding protein pos-1 (Caenorhabditis elegans, UniProt G5EF15); experiment: disruptors of C. elegans POS-1 RNA interaction – biochemical, fluorescence polarization, dose response (AID 1964);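 also: purified POS-1 fused to maltose binding protein made in E. coli; potency of compounds blocking POS-1 binding to fluorescent RNA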
T6 sequence (G5EF15 whole entry): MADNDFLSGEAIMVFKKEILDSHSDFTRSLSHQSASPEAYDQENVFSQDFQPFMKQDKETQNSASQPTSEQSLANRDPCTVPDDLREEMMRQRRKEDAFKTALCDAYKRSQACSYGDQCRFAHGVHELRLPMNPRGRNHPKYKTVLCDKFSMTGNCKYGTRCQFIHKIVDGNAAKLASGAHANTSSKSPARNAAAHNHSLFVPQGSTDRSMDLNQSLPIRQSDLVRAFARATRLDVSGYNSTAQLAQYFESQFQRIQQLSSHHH

[18] = biological target: T7, Zinc finger protein mex-5 (Caenorhabditis elegans, UniProt Q9XUB2); experiment: potency of MEX-5 RNA-binding blockers – biochemical, C. elegans, fluorescence polarization, dose response (AID 1960)
T7 sequence (Q9XUB2 whole entry): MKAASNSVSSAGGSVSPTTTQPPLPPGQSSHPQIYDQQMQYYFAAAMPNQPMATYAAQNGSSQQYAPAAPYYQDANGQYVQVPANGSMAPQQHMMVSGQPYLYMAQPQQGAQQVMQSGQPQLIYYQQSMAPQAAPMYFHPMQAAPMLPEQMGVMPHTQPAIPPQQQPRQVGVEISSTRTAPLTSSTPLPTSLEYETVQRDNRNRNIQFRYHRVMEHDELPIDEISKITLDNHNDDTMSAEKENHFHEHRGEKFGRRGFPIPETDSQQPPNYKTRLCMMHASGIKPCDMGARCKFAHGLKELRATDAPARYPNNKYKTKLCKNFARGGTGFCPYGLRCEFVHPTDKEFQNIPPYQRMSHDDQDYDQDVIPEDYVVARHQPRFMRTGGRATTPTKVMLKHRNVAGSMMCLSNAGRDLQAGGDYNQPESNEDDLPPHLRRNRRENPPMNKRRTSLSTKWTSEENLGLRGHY

Sequence of Voltage-dependent T-type calcium channel subunit alpha-1H (O95180 whole entry): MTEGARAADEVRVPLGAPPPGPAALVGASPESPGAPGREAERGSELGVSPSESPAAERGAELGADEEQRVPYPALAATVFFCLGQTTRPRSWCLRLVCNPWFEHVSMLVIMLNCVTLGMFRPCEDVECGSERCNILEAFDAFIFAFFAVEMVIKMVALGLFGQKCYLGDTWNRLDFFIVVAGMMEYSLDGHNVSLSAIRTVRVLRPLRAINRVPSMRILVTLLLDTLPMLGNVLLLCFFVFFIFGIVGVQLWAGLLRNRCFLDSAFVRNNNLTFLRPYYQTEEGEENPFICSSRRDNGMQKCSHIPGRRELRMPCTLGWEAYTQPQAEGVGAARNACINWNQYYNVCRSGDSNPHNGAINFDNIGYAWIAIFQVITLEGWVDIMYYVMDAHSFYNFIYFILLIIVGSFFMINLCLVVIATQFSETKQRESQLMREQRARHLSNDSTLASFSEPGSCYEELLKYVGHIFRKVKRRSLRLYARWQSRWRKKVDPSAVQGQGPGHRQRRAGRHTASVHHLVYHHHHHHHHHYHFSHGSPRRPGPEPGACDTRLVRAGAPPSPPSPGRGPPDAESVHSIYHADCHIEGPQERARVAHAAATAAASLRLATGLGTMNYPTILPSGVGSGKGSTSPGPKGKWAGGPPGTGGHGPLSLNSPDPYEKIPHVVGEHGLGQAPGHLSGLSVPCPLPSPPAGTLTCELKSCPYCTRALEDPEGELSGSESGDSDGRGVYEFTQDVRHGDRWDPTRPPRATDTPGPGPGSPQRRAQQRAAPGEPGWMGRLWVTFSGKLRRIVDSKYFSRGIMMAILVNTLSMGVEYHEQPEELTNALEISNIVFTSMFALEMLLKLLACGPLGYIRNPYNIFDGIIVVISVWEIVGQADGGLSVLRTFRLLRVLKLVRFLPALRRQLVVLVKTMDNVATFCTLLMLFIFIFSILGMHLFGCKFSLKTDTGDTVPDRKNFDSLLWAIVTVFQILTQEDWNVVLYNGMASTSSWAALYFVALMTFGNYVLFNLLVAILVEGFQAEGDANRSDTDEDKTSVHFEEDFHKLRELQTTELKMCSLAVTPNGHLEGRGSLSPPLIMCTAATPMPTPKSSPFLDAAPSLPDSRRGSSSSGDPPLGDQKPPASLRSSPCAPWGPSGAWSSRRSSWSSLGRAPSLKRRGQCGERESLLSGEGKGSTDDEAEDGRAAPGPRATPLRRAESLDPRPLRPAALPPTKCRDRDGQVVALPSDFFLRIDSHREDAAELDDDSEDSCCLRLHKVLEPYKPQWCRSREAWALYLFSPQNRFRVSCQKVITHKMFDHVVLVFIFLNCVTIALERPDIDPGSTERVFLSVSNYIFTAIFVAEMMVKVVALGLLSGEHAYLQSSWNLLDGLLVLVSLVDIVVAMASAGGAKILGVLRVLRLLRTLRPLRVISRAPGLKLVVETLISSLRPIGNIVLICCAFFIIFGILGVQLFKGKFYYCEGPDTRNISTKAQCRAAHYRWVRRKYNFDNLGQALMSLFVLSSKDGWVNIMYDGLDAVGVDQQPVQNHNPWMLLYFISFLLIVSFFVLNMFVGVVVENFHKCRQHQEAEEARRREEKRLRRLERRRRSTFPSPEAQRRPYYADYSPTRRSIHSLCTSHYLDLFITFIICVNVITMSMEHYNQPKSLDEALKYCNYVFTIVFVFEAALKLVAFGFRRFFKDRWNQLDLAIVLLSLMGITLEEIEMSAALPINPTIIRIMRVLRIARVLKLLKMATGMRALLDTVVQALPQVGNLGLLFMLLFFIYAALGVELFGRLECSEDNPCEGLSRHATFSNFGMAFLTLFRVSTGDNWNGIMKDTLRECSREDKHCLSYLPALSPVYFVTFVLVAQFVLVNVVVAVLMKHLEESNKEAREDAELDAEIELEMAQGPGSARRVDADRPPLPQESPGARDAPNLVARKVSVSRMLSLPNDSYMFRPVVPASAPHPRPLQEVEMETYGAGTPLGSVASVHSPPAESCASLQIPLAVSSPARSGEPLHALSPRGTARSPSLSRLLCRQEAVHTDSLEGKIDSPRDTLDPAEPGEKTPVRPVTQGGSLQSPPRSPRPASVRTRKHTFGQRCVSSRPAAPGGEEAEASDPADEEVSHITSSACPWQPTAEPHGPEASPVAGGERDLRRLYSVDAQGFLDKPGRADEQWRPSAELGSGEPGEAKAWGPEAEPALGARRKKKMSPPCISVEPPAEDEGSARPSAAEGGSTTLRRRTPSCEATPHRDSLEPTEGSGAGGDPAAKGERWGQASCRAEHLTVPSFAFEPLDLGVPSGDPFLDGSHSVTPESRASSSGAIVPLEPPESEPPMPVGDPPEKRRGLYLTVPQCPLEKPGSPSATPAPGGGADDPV
T5 sequence (Q92731 whole entry): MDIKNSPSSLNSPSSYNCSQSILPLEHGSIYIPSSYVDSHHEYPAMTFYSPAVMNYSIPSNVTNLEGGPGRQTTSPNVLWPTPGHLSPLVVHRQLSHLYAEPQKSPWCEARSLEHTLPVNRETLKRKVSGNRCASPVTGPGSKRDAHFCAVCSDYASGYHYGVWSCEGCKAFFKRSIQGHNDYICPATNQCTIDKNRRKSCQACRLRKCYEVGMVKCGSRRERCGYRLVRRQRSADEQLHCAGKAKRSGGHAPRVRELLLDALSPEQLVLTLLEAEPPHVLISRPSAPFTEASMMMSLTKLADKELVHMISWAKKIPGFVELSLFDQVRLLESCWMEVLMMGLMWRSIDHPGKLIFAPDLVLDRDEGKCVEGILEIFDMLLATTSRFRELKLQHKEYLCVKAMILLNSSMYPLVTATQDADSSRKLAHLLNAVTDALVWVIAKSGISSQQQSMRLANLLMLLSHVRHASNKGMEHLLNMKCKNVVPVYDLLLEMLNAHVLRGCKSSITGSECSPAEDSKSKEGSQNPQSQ
T3 sequence (P65502 whole entry): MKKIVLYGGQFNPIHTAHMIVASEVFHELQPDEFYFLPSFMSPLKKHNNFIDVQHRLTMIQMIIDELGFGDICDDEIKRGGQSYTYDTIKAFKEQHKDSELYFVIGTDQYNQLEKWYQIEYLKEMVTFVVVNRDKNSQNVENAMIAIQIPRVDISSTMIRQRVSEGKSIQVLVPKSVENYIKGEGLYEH

CCn1c(C)cc(C=C2C(=O)c3ccccc3C2=O)c1C
EC50 [1]: 44.5 µM (inactive)
EC50 [2]: 62.8 µM (inactive)
IC50 [3]: > 67.5 µM (inactive)
EC50 [4]: > 67.5 µM (inactive)

O=C(CNC(=O)c1cccs1)N=Nc1c(O)[nH]c2ccc([N+](=O)[O-])cc12
CC50 [5]: > 50 µM (active)
IC50 (cells): 14.6 µM (active)

Cc1ccc(-n2nc3c(c2NC(=O)c2cccs2)CSC3)cc1
EC50 [6]: 0.558 µM (active)
IC50 [7]: 6.35 µM (active)
IC50 [8]: 16.2 µM (active)

COC(=O)c1[nH]c2ccccc2c1NC(=O)CN1CCCCCC1
IC50 [9]: 3.51 µM (active)
IC50 [10]: 2.63 µM (active)

CCOc1ccc(C(=O)NC(=S)Nc2ccc(N3CCC(C)CC3)cc2)cc1[N+](=O)[O-]
CC50 [11]: > 40 µM (active)

O=C(Nc1nc2ccc(S(=O)(=O)N3CCCC3)cc2s1)C1CCCCC1
IC50 [12]: > 80 µM (inactive)

Cc1ccc(-n2c(=O)c(C#N)cc3c(=O)n4cccc(C)c4nc32)cc1
IC50 (Estrogen receptor): 30.9 µM (not active)
IC50 (Estrogen receptor beta [13]): 25.4 µM (active)
IC50 (Estrogen receptor beta [14]): < 77 µM (not active)

CCOCCCNc1[nH]cnc2c3ccccc3nc1-2
IC50 [9]: 2.76 µM (active)
IC50 [10]: 2.31 µM (active)

CC1=Nc2cc(C(=O)N3CCCC3)ccc2Sc2c(C)ccc(C)c21
CC50 [5]: 7.28 µM (active)
IC50 (Vero [15]): 8.21 µM (active)
CC50 (Vero [16]): 16.9 µM (active)
IC50 (cells): 3.34 µM (active)

COc1ccccc1NC(=O)N1CCc2[nH]c3ccc(F)cc3c2C1
CC50 [5]: > 50 µM (active)
EC50 [6]: 5.47 µM (active)

CCn1c(SCc2ccc(C)cc2)nnc1C1CCN(S(=O)(=O)c2ccc(OC)cc2)CC1
EC50 [17]: > 300 µM (not active)
EC50 [18]: > 300 µM (not active)
EC50 [6]: 6.41 µM (active)
